Test [1] deals with RmtA (Emericella nidulans) (UniProt Q5VLE3). As to the kind of experiment: Inhibition of Aspergillus nidulans RmtA at 40 uM by TRF assay. On the set-up: scale not given: the % may be the effect or the level left.
Test [2] has as its target Protein arginine N-methyltransferase 1 (Homo sapiens) (UniProt Q99873). As to the kind of experiment: Inhibition of human PRMT1 at 40 uM by TRF assay. On the set-up: scale not given: the % may be the effect or the level left.
In test [3] the target is T1, Histone-lysine N-methyltransferase SETD7 (Homo sapiens) (UniProt Q8WTS6).
T1 sequence (whole entry): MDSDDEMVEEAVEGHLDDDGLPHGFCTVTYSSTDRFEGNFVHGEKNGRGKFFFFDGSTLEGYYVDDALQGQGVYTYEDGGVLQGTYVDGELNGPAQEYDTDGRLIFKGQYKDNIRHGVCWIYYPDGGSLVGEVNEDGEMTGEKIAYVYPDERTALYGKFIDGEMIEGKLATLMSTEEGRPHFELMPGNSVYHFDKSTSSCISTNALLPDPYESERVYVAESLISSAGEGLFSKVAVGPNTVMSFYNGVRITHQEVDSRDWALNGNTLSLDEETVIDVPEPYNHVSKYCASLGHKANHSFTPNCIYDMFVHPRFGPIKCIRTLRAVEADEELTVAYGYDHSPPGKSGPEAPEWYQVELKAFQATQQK
Put plainly: Inhibition of lysine methyltransferase SET7/9 at 50 uM.

Another test has as its target RmtA (Emericella nidulans, UniProt Q5VLE3). Put plainly: Inhibition of Aspergillus nidulans RmtA by TRF assay.

Active and inactive are the calls of the source. The rule behind the calls is not given here.

Sequence of RmtA (Emericella nidulans) (Q5VLE3 as listed by the source): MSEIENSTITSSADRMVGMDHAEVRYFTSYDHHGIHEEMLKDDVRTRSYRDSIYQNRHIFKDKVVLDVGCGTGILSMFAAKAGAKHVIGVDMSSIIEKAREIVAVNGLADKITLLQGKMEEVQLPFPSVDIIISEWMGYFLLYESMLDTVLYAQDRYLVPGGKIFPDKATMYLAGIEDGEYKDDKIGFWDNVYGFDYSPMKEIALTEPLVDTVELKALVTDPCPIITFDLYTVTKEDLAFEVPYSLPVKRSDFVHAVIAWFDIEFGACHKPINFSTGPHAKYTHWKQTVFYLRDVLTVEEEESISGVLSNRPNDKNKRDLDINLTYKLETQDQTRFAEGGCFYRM
Sequence of Protein arginine N-methyltransferase 1 (Homo sapiens) (Q99873 whole entry, looked up): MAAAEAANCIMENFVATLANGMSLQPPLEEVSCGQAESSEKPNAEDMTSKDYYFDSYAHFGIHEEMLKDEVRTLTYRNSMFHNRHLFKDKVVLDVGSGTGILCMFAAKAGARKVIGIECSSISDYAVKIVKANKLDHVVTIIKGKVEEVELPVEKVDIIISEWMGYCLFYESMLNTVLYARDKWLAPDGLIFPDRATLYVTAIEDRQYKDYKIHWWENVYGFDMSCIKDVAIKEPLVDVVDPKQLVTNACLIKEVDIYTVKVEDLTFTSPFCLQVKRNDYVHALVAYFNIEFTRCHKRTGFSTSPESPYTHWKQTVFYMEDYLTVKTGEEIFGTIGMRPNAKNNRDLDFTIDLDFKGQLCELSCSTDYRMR
Sequence of RmtA (Q5VLE3 whole entry): as the sequence (Q5VLE3 as listed by the source) above

Turning to `CC(SC1c2ccccc2Sc2ccccc21)C(=O)N1CCCC1` (stereo not given), the Activity in test [1] and in test [2] was less than 20% each time.

Take `CC(SC1c2ccccc2Oc2ccccc21)C(=O)NCCNC(=O)C(C)SC1c2ccccc2Oc2ccccc21` (stereo not given): the result in test [3] was inactive. On RmtA, this compound yielded a half-maximal inhibitory concentration (IC50) of 46.2 µM.

Turning to `CC(SC1c2ccccc2Oc2ccccc21)C(=O)NCCOCCOCCNC(=O)C(C)SC1c2ccccc2Oc2ccccc21` (stereo not given), the Activity in test [1] and in test [2] was less than 20% in each case.

Turning to `CC(S)C(=O)NCCCN` (stereo not given), the concentration for half-maximal inhibition (IC50) on RmtA was 46.8 µM. For the same compound, the Activity in test [2] is less than 20%.

With `O=C(CSC1c2ccccc2Oc2ccccc21)N1CCCCC1`, the Activity in test [1] and in test [2] was less than 20% in each case.

Values taken from ChEMBL document CHEMBL1145428, “A novel arginine methyltransferase inhibitor with cellular activity” (Bioorg Med Chem Lett, 2007).
